# From US5126258A (priority 1988, dated 1992)
# Entries after “also recorded” stand apart in the source; their conditions may differ. Where two headings read alike, the source gives them in different places. *1 amine or outer side, *2 acyl side, *3 side chain or, on linkers, in order; H or OH if unused. Where a SMILES comes first, the peptide text is derived from it. The star is where a group is joined. Glutaryl = O=C(CCCC(=O)[*:2])[*:1]; pNA = O=[N+]([O-])c1ccc(N*)cc1; Cbz = O=C(OCc1ccccc1)*
# Legend:
# [1] = test system: monoclonal receptor NPN 43C9; test: Amide hydrolysis by monoclonal receptor NPN 43C9, kinetics and inhibition; type: biochemical, mouse; conditions: for Ki / nature of inhibition: substrate Compound 28; for Km: printed figure = km × 10^6; for Vmax: figure = Vmax × 10^9; for kcat: printed figure = kcat × 10^4
# Method: FIG. 6 is a graph showing a Lineweaver-Burk plot for amide hydrolysis of reactant ligand Compound 28 by monoclonal receptor NPN 43C9 present at 10 uM. Rates were determined as discussed hereinafter. The ordinate is in units of 1/initial velocity (1/v) in units of minutes/moles (M^-1 min) from zero through 10^7. The abscissa is in units of the reciprocal of the concentration of Compound 28 [1/(28)] in micromoles (uM^-1).
# FIG. 7 is a graph showing plots of steady-state velocity (V×10^-9M^-1 min) as a function of total NPN 43C9 monoclonal receptor concentration (At ×10^-6 M) in the absence (I=O) and presence (I=44,=88 and =131) of different concentrations of reversible tight-binding inhibitor (Compound 24i). The indicia adjacent to each curve (I=O, I=44, I=88, and I=131) represent the total micromolar (uM) concentrations of that inhibitor. Each data set was obtained at a constant reactant ligand concentration (1600 uM). […] The data obtained were thereafter fit to an equation shown and discussed hereinafter.
# FIG. 8 is a graph showing three further Lineweaver-Burk plots for the hydrolysis of Compound 28 by receptor NPN 43C9 present at 8 uM. Initial velocities were calculated as discussed hereinafter, whereas the ordinate and abscissa are as discussed for FIG. 6, albeit the values of the ordinate are from zero to 3×10^7 M^-1 min. In those plots, the uppermost plot ( ) was prepared from data obtained in the presence of 2000 uM Compound 29 as inhibitor, the middle plot ( ) was obtained in the presence of 1000 uM Compound 29 as inhibitor, and the lowest plot ( ) was obtained in the absence of inhibitor.
# It was therefore stored at 4 degrees C in buffer containing 150 mM sodium chloride that was removed immediately prior to use by dialysis against 50 mM CHES, 80 uM NaCl at a pH value of 9.0, and at a temperature of 22 degrees C. This receptor was utilized at concentrations of 10 and 8 uM (as an average value determined from a BCA assay and O. D. 280 nm, using a molecular weight of 160,000 daltons for IgG).
# Kinetic parameters for hydrolysis of reactant ligand Compound 28 were determined by measuring the initial linear absorbance change at 404 nm, release of p-nitroaniline. Monoclonal receptor concentrations utilized were 10 and 8 uM, as noted previously. Reactions were initiated by admixture of varying aliquots of a 50 or 100 mM stock solution of Compound 28 in DMF, to provide reactant ligand substrate concentrations of 100-1600 uM. Further studies were carried out using a mixed organic solvent containing dimethyl sulfoxide (DMSO) and acetonitrile (CH3 CN) to dissolve the ligand. In those studies, a final concentration of 5 percent (v/v) of organic solvent was utilized with DMSO comprising 0.2-2.4 volume percent of the final concentration and CH3 CN comprising the remainder of the organic solvent.
# Transacylation reactions utilizing an amide reactant ligand as substrate have been studied with Compound 28 as the reactant ligand. In these studies, forty-four hybridomas were prepared that secreted forty-four monoclonal receptors that bound to a conjugate of the immunizing hapten and BSA as carrier protein. Of those forty-four receptors, two appeared to catalyze the hydrolysis reaction of Compound 28. One of those two receptors, NPN 43C9, was selected for further study, as is discussed below.
# The initial rates of hydrolysis measured as a function of reactant ligand (Compound 28) concentration followed Michaelis-Menten kinetics.
# *Parameters in the upper horizontal row were obtained in the presence of
# DMF as a Compound 28solubilizing solvent, whereas parameters in the lower
# horizontal row were detained in the presence of DMSO/CH3 CN as
# Compound 28solubilizing solvent.
# To establish the specificity of monoclonal receptor NPN 43C9, the rates of hydrolysis of potential reactant ligands modified in their acyl or aniline portions were studied. […]
# [2] = test system: monoclonal receptor P3 6D4; test: Stoichiometric transacylation reaction of monoclonal receptor P3 6D4 with coumarin ester Compound 5 (fluorescence) and its inhibition/inactivation; type: biochemical, mouse
# Method: A Perkin-Elmer LS-5 fluorescence spectrometer was operated at a fixed wavelength, using 355 nanometers (nm) for excitation and measuring the emission at 455 nm. A stock solution of the coumarin ester 5 was prepared in dioxane and was diluted to the desired concentrations in Tris-HCl (50 mM, pH 7) or sodium phosphate (50 mM, pH 4-9).
# Reactions were run at 23 degrees C and were initiated by the addition of an aliquot of antibody solution (1 mg/ml) to substrate solutions to provide a final protein concentration of 100 nM. Final fluorescence values were determined by hydrolysis of the substrate with pig liver esterase. The observed reaction rate was corrected for spontaneous hydrolysis. Reaction kinetics were studied by measuring initial rates under pseudo-first order conditions. Active protein concentration was extrapolated from fluorescence values at the end of the reaction. The kinetic parameters were obtained by fitting the data to a hyperbolic curve and from double reciprocal plots. Inhibition constants were determined from the Lineweaver-Burk plot data with at least five inhibitor concentrations. All the data were studied by a least squares analysis.
# Antibody preparations were inactivated without introducing fluorescent products by the addition of the activated ester (Compound 8) in dioxane to a solution of the IgG (5 mg/ml) in Tris-HCl (50 mM, pH 6.5) at a ratio of 5 moles of the ester (Compound 8) per mole IgG.
# Protein modification was performed in an analogous manner, by the addition of a dioxane solution of the reagent at a known concentration to the antibody. The solution was incubated for 30 minutes before filtration through Sephadex G-25. The activity remaining was compared to control samples. Aliquots of IgG (5 mg/ml) inactivated with the ester (Compound 8) were diluted with four volumes of phosphate buffer (50 mM, pH 4-9, at intervals of 1 pH unit). Any pH change was recorded, and the sample was stored at 4 degrees C for 24 hours.
# Initially, the ester was used at a concentration that was about four-fold greater than that of the protein, and the mixture was incubated at pH 7.2 for 10 minutes. Any change in fluorescence above background was noted.
# The termination of the reaction is noted by the return of the rate of fluorescence increase to the background level.
# [3] = DMF as Compound 28-solubilizing solvent
# [4] = DMSO/CH3CN as Compound 28-solubilizing solvent
compound,measurement,setting,value
O=C(O)CCCC(=O)Nc1ccc(CC(=O)Nc2ccccc2[N+](=O)[O-])cc1,substrate acceptance by NPN 43C9,[1],non-substrates
O=C(O)CCCC(=O)Nc1ccc(CC(=O)Oc2ccc([N+](=O)[O-])cc2)cc1,substrate acceptance by NPN 43C9,[1],catalytically hydrolyzed
N=C(N)NCCCC(NC(=O)c1ccccc1)C(=O)Nc1ccc([N+](=O)[O-])cc1 (racemic) [reference compound],substrate acceptance by NPN 43C9,[1],not reactant ligand substrates
O=C(Cc1ccc(NC(=O)C(F)(F)F)cc1)ON1C(=O)CCC1=O [Compound 6],inactivation of receptor,[2],specifically combine with the antibodies to produce an inactive product
CC(=O)Nc1ccc(CP(=O)(O)Nc2ccc([N+](=O)[O-])cc2)cc1 [Compound 24i],calculated maximum number of enzyme binding sites,[1]; detected with inhibitor Compound 24i,5.1±0.9
same,Ki,"[1]; infinite reactant ligand concentration, inhibitor binding to receptor in a complex, read-out: inhibition constant kii",2.5 µM
same,Ki,"[1]; low substrate concentration, inhibitor binding to free receptor, read-out: inhibition constant kis",10 µM
same,nature of inhibition,[1],Tight binding inhibition; also recorded: mixed inhibitor
O=C(O)CCCC(=O)Nc1ccc(CC(=O)Nc2ccc([N+](=O)[O-])cc2)cc1 [Compound 28],rate acceleration / rate enhancement relative to uncatalyzed reaction,[1],10^5
same,substrate acceptance by NPN 43C9,[1],substrate
same,kcat/kuncat,[1]; [3],1.5 × 10^5
same,Km,"[1]; DMF as Compound 28-solubilizing solvent, pH 9.0",370 µM
same,Vmax,[1]; [3],8.3 nM/s
same,kcat,[1]; [3],0.00083 s⁻¹
same,kcat/kuncat,[1]; [4],2.5 × 10^5
same,Vmax,[1]; [4],7 nM/s
same,kcat,[1]; [4],0.00133 s⁻¹
same,Km,[1]; [4],562 µM
same,available transition state binding energy ΔΔG,[1]; difference between binding of inhibitor (Ki) and Compound 28 (Km),-2.2 kcal/mol
O=C(O)CCCC(=O)Nc1ccc(CC(=O)Nc2cccc([N+](=O)[O-])c2)cc1 [Compound 29],substrate acceptance by NPN 43C9,[1],lack of receptor-assisted hydrolysis
same,substrate acceptance by NPN 43C9,[1]; listed as Compound 28 with m-nitroaniline for p-nitroaniline,non-substrates
same,nature of inhibition,[1],inhibitor
"O=C(O)CN(CCN(CC(=O)O)CC(=O)O)CC(=O)O [EDTA, reference compound]",effect of additive on antibody-enhanced esterolysis of Compound 5,[2],failure of added EDTA to affect the reaction
"CC(C)C[C@H](N)C(=O)Nc1ccc([N+](=O)[O-])cc1 [L-leucine p-nitroanilide, reference compound]",substrate acceptance by NPN 43C9,[1],not reactant ligand substrates
"NCCCC[C@H](N)C(=O)Nc1ccc([N+](=O)[O-])cc1 [L-lysine p-nitroanilide, reference compound]",substrate acceptance by NPN 43C9,[1],not reactant ligand substrates
"O=C(Nc1ccc([N+](=O)[O-])cc1)[C@@H]1CCCN1 [L-proline p-nitroanilide, reference compound]",substrate acceptance by NPN 43C9,[1],not reactant ligand substrates
"CC(C)[C@H](N)C(=O)Nc1ccc([N+](=O)[O-])cc1 [L-valine p-nitroanilide, reference compound]",substrate acceptance by NPN 43C9,[1],not reactant ligand substrates
"CC(C)C[C@H](NC(=O)CNC(=O)CNC(=O)OCc1ccccc1)C(=O)Nc1ccc([N+](=O)[O-])cc1 [N-CBZ-glycyl-glycyl-L-leucine p-nitroanilide, reference compound] (Cbz-Gly-Gly-Leu-pNA)",substrate acceptance by NPN 43C9,[1],not reactant ligand substrates
"N=C(N)NCCC[C@H](NC(=O)OCc1ccccc1)C(=O)Nc1ccc([N+](=O)[O-])cc1 [N-alpha-CBZ-L-arginine p-nitroanilide, reference compound]",substrate acceptance by NPN 43C9,[1],not reactant ligand substrates
"O=C(N[C@@H](Cc1ccc(O)cc1)C(=O)Nc1ccc([N+](=O)[O-])cc1)c1ccccc1 [N-benzoyl-L-tryrosine p-nitroanilide, reference compound]",substrate acceptance by NPN 43C9,[1],not reactant ligand substrates
"O=C(O)CCCC(=O)N[C@@H](Cc1ccccc1)C(=O)Nc1ccc([N+](=O)[O-])cc1 [N-glutaryl-L-phenylalanine p-nitroanilide, reference compound]",substrate acceptance by NPN 43C9,[1],not reactant ligand substrates
"N[C@@H](CSCc1ccccc1)C(=O)Nc1ccc([N+](=O)[O-])cc1 [S-benzyl-L-cysteine p-nitroanilide, reference compound]",substrate acceptance by NPN 43C9,[1],not reactant ligand substrates
"CC(=O)N[C@@H](CC(N)=O)C(=O)Nc1ccc([N+](=O)[O-])cc1 [acetyl-L-asparagine p-nitroanilide, reference compound]",substrate acceptance by NPN 43C9,[1],not reactant ligand substrates
O=C(O)Cc1ccc(NC(=O)C(F)(F)F)cc1 [carboxylate product of ester hydrolysis],Ki,"[2]; summary, kinetic parameters at low pH values, read-out: Ki (inhibition of antibody esterolysis)",7 µM
"CC(C)C[C@H](NC(=O)[C@H](CCC(=O)O)NC(=O)CCCC(=O)O)C(=O)Nc1ccc([N+](=O)[O-])cc1 [glutaryl-glutamyl-L-leucine p-nitroanilide, reference compound] (Glutaryl-Glu-Leu-pNA)",substrate acceptance by NPN 43C9,[1],not reactant ligand substrates
CC(=O)Nc1ccc(CP(=O)(O)Nc2ccc([N+](=O)[O-])cc2)cc1 [inhibitor],nature of inhibition,[1],reversible
CC(=O)Nc1ccc(CC(=O)Oc2ccc3ccc(=O)oc3c2)cc1 [reference compound],stoichiometric antibody reaction (release of alcohol),[2],not detected
zinc [reference compound],effect of additive on antibody-enhanced esterolysis of Compound 5,"[2]; up to 100 micromolar added zinc and picolinic acid, EDTA concentration not given",No effect
